Patent publication US20230072683A1, “PYRIDO-PYRIMIDIN DERIVATIVES AND PHARMACEUTICAL COMPOSITION, FOR USE IN PREVENTING OR TREATING PI3 KINASE RELATED DISEASES, COMPRISING SAME AS ACTIVE INGREDIENT” (BORYUNG PHARMACEUTICAL CO., LTD, priority 2019, published 2023)
Like-named read-outs stand apart in the source and are kept apart here.

How the values were obtained:
[1] = molecular target: PI3K-δ (PI3K(p1108/p857) (h)) (Homo sapiens, UniProt O00329); test: Evaluation of inhibitory activity against PI3K-δ (HTRF kinase assay); type: biochemical; settings: for inhibition at 0.01 µM: compound concentration 0.01 μM, read-out: EXP_VALUE(% Inhibition) PI3K-δ 0.01 μM; for inhibition at 0.1 µM: read-out: EXP_VALUE(% Inhibition) PI3K-δ 0.1 μM
Outline: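 HTRF read-out (665/620 nm ratio ×10000) used Eu-labelled anti-GST, GST-tagged GRP1 PH domain and streptavidin-allophycocyanin after EDTA/PIP3 stop.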

DNA-PK(h) = DNA-PK(h) (Homo sapiens, UniProt P78527); test: Evaluation of inhibitory activity against DNA-PK (HTRF kinase assay, GST-cMyc-p53 substrate); type: biochemical; settings: for inhibition at 0.01 µM: compound concentration 0.01 μM, read-out: EXP_VALUE(% Inhibition) DNA-PK(h) 0.01 μM; for inhibition at 0.1 µM: read-out: EXP_VALUE(% Inhibition) DNA-PK(h) 0.1 μM
Outline: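 Human DNA-PK with 50 μM GST-cMyc-p53 substrate; reaction started with Mg/ATP, run 30 min at room temperature, stopped with EDTA. Phospho-Ser15 p53 detected by HTRF (Eu anti-phospho-Ser15, d2 anti-GST), signal = 10000×(Em 665/Em 620).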

Sequence of PI3K-δ (PI3K(p1108/p857) (h)) (O00329 whole entry, the tested form may be a part): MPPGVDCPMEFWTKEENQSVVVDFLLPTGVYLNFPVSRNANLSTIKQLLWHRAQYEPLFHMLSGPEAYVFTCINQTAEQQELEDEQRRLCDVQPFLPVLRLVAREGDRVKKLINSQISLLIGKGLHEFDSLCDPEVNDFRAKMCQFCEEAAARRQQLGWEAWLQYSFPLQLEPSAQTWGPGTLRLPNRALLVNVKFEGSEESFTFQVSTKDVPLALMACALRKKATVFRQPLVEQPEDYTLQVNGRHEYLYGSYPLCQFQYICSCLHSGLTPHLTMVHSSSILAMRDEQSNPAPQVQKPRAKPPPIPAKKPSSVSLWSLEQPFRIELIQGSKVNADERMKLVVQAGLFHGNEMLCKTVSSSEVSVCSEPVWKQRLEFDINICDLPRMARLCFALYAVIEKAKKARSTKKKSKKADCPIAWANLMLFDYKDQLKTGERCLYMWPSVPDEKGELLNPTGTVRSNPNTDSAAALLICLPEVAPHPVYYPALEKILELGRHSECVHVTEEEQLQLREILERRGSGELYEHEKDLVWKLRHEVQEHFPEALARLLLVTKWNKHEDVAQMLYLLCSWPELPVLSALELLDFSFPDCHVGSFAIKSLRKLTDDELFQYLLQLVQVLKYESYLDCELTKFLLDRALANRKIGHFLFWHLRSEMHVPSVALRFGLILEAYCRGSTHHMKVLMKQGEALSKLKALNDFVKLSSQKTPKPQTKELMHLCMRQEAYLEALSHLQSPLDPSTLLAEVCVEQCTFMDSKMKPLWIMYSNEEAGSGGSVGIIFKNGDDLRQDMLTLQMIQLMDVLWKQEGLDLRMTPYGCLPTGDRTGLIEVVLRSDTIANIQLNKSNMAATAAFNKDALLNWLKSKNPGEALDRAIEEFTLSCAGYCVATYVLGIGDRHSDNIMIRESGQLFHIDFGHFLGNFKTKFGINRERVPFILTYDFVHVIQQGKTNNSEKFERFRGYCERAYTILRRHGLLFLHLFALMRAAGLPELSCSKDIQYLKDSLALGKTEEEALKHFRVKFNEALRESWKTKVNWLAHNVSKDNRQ
Sequence of PI3K-δ (PI3K(p1108/p857) (h)) (P27986 whole entry partner, the tested form may be a part): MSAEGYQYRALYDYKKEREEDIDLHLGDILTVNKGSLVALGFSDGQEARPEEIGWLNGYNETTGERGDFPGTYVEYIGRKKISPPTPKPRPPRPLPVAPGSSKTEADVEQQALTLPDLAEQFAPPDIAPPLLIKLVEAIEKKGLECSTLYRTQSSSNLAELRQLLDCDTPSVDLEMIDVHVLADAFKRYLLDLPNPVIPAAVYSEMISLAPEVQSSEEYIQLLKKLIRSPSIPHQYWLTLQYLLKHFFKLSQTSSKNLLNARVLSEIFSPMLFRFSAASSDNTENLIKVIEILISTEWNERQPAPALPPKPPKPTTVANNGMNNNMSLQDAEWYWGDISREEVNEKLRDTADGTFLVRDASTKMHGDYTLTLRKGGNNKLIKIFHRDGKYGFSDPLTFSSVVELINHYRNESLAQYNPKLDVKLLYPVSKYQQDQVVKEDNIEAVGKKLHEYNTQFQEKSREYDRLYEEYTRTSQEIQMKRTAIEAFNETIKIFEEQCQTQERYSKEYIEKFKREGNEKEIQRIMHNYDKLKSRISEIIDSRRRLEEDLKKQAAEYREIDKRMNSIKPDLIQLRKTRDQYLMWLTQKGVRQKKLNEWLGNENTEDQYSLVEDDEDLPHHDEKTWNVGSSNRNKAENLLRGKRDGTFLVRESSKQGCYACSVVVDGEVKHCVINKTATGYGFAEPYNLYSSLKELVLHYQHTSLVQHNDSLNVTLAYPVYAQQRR

Structure (SMILES) | inhibition at 0.01 µM [1] [%] | inhibition at 0.01 µM (DNA-PK(h)) [%] | inhibition at 0.1 µM ([1]; compound concentration 0.1 μM) [%] | inhibition at 0.1 µM (DNA-PK(h); compound concentration 0.1 μM) [%] | inhibition at 0.1 µM ([1]; compound at 0.1 μM) [%] | inhibition at 0.1 µM (DNA-PK(h); compound at 0.1 μM) [%]
C[C@H](Nc1ncnc2[nH]ccc(=O)c12)c1c(Cl)c2cccc(-c3ccc(N4CCN(C)CC4)cc3)c2c(=O)n1-c1ccccc1 [Example 179, (S)-4-((1-(4-chloro-8-(4-(4-methylpiperazin-1-yl)phenyl)-1-oxo-2-phenyl-1,2-dihydroisoquinolin-3-yl)ethyl)amino)pyrido[2,3-d]pyrimidin-5(8H)-one] | 86 | 91 | – | – | – | –
CCNc1cccc2c(Cl)c([C@H](C)Nc3ncnc4[nH]ccc(=O)c34)n(-c3ccccc3)c(=O)c12 [Example 325, (S)-4-((1-(4-chloro-8-(ethylamino)-1-oxo-2-phenyl-1,2-dihydroisoquinolin-3-yl)ethyl)amino)pyrido[2,3-d]pyrimidin-5(8H)-one] | 22 | 12 | 65 | 59 | – | –
COc1ccc(-c2cccc3c(Cl)c([C@H](C)Nc4ncnc5[nH]ccc(=O)c45)n(-c4ccccc4)c(=O)c23)nc1 [Example 41, (S)-4-((1-(4-chloro-8-(5-methoxypyridin-2-yl)-1-oxo-2-phenyl-1,2-dihydroisoquinolin-3-yl)ethyl)amino)pyrido[2,3-d]pyrimidin-5(8H)-one] | 89 | 79 | – | – | – | –
C[C@H](Nc1ncnc2[nH]ccc(=O)c12)c1c(Cl)c2cccc(C(=O)NCc3cccs3)c2c(=O)n1-c1ccccc1 [Example 278, (S)-4-chloro-1-oxo-3-(1-((5-oxo-5,8-dihydropyrido[2,3-d]pyrimidin-4-yl)amino)ethyl)-2-phenyl-N-(thiophen-2-ylmethyl)-1,2-dihydroisoquinoline-8-carboxamide] | 104 | 6 | – | – | – | –
COc1cc(-c2cccc3c(Cl)c([C@H](C)Nc4ncnc5[nH]ccc(=O)c45)n(-c4ccccc4)c(=O)c23)ccc1OC(F)(F)F [Example 159, (S)-4-((1-(4-chloro-8-(3-methoxy-4-(trifluoromethoxy)phenyl)-1-oxo-2-phenyl-1,2-dihydroisoquinolin-3-yl)ethyl)amino)pyrido[2,3-d]pyrimidin-5(8H)-one] | 28 | 19 | – | – | – | –
C[C@H](Nc1ncnc2[nH]ccc(=O)c12)c1c(Cl)c2cccc(NCc3cccnc3)c2c(=O)n1-c1ccccc1 [Example 324, (S)-4-((1-(4-chloro-1-oxo-2-phenyl-8-((pyridin-3-ylmethyl)amino)-1,2-dihydroisoquinolin-3-yl)ethyl)amino)pyrido[2,3-d]pyrimidin-5(8H)-one] | 19 | 30 | 58 | 74 | – | –
C[C@H](Nc1ncnc2[nH]ccc(=O)c12)c1c(Cl)c2cccc(-c3cnoc3)c2c(=O)n1-c1ccccc1 [Example 238, (S)-4-((1-(4-chloro-8-(isoxazol-4-yl)-1-oxo-2-phenyl-1,2-dihydroisoquinolin-3-yl)ethyl)amino)pyrido[2,3-d]pyrimidin-5(8H)-one] | 15 | 15 | – | – | – | –
C[C@H](Nc1ncnc2[nH]ccc(=O)c12)c1c(Cl)c2cccc(-c3cnc(N4CCCCC4)nc3)c2c(=O)n1-c1ccccc1 [Example 224, (S)-4-((1-(4-chloro-1-oxo-2-phenyl-8-(2-(piperidin-1-yl)pyrimidin-5-yl)-1,2-dihydroisoquinolin-3-yl)ethyl)amino)pyrido[2,3-d]pyrimidin-5(8H)-one] | 57 | 19 | – | – | – | –
CCCSc1cccc2c(Cl)c([C@H](C)Nc3ncnc4[nH]ccc(=O)c34)n(-c3ccccc3)c(=O)c12 [Example 372, (S)-4-((1-(4-chloro-1-oxo-2-phenyl-8-(propylthio)-1,2-dihydroisoquinolin-3-yl)ethyl)amino)pyrido[2,3-d]pyrimidin-5(8H)-one] | 3 | 38 | 19 | 79 | – | –
C[C@H](Nc1ncnc2[nH]ccc(=O)c12)c1c(Cl)c2cccc(C(=O)NCc3ccccc3)c2c(=O)n1-c1ccccc1 [Example 280, (S)—N-benzyl-4-chloro-1-oxo-3-(1-((5-oxo-5,8-dihydropyrido[2,3-d]pyrimidin-4-yl)amino)ethyl)-2-phenyl-1,2-dihydroisoquinoline-8-carboxamide] | 91 | 15 | – | – | – | –
C[C@H](Nc1ncnc2[nH]ccc(=O)c12)c1c(Cl)c2cccc(C=O)c2c(=O)n1-c1ccccc1 [Example 271, (S)-4-chloro-1-oxo-3-(1-((5-oxo-5,8-dihydropyrido[2,3-d]pyrimidin-4-yl)amino)ethyl)-2-phenyl-1,2-dihydroisoquinolin-8-carbaldehyde] | 60 | 19 | – | – | – | –
C[C@H](Nc1ncnc2[nH]ccc(=O)c12)c1c(Cl)c2cccc(NC3CC3)c2c(=O)n1-c1ccccc1 [Example 323, (S)-4-((1-(4-chloro-8-(cyclopropylamino)-1-oxo-2-phenyl-1,2-dihydroisoquinolin-3-yl)ethyl)amino)pyrido[2,3-d]pyrimidin-5(8H)-one] | 22 | 8 | 65 | 28 | – | –
C[C@H](Nc1ncnc2[nH]ccc(=O)c12)c1c(Cl)c2cccc(N3CCc4ccccc4C3)c2c(=O)n1-c1ccccc1 [Example 7, (S)-4′-chloro-3′-(1-((5-oxo-5,8-dihydropyrido[2,3-d]pyrimidin-4-yl)amino)ethyl)-2′-phenyl-3,4-dihydro-1H-(2,8′-biisoquinolin)-1′(2′H)-one] | 77 | 26 | 108 | 62 | – | –
C[C@H](Nc1ncnc2[nH]ccc(=O)c12)c1c(Cl)c2cccc(S)c2c(=O)n1-c1ccccc1 [Example 427, (S)-4-((1-(4-chloro-8-mercapto-1-oxo-2-phenyl-1,2-dihydroisoquinolin-3-yl)ethyl)amino)pyrido[2,3-d]pyrimidin-5(8H)-one] | – | – | – | – | 38 | 7
C[C@H](Nc1ncnc2[nH]ccc(=O)c12)c1c(Cl)c2cccc(-c3cnn(CCN(C)C)c3)c2c(=O)n1-c1ccccc1 [Example 83, (S)-4-((1-(4-chloro-8-(1-(2-(dimethylamino)ethyl)-1H-pyrazol-4-yl)-1-oxo-2-phenyl-1,2-dihydroisoquinolin-3-yl)ethyl)amino)pyrido[2,3-d]pyrimidin-5(8H)-one] | 56 | 66 | 89 | 94 | – | –
C[C@H](Nc1ncnc2[nH]ccc(=O)c12)c1c(Cl)c2cccc(-c3ccc4nsnc4c3)c2c(=O)n1-c1ccccc1 [Example 233, (S)-4-((1-(8-(benzo[c][1,2,5]thiadiazol-5-yl)-4-chloro-1-oxo-2-phenyl-1,2-dihydroisoquinolin-3-yl)ethyl)amino)pyrido[2,3-d]pyrimidin-5(8H)-one] | 77 | 60 | – | – | – | –
CC(C)Sc1cccc2c(Cl)c([C@H](C)Nc3ncnc4[nH]ccc(=O)c34)n(-c3ccccc3)c(=O)c12 [Example 415, (S)-4-((1-(4-chloro-8-(isopropylthio)-1-oxo-2-phenyl-1,2-dihydroisoquinolin-3-yl)ethyl)amino)pyrido[2,3-d]pyrimidin-5(8H)-one] | – | – | – | – | 0 | 23
C[C@H](Nc1ncnc2[nH]ccc(=O)c12)c1c(Br)c2cccc(-c3cnn(C)c3)c2c(=O)n1-c1ccccc1 [Example 19, (S)-4-((1-(4-bromo-8-(1-methyl-1H-pyrazol-4-yl)-1-oxo-2-phenyl-1,2-dihydroisoquinolin-3-yl)ethyl)amino)pyrido[2,3-d]pyrimidin-5(8H)-one] | 89 | 78 | 102 | 98 | – | –
C[C@H](Nc1ncnc2[nH]ccc(=O)c12)c1c(Cl)c2cccc(Sc3ccncc3)c2c(=O)n1-c1ccccc1 [Example 370, (S)-4-((1-(4-chloro-1-oxo-2-phenyl-8-(pyridin-4-ylthio)-1,2-dihydroisoquinolin-3-yl)ethyl)amino)pyrido[2,3-d]pyrimidin-5(8H)-one] | 69 | 39 | 96 | 76 | – | –
C[C@H](Nc1ncnc2[nH]ccc(=O)c12)c1c(Cl)c2cccc(-c3cnc(N4CCN(C)CC4)cn3)c2c(=O)n1-c1ccccc1 [Example 211, (S)-4-((1-(4-chloro-8-(5-(4-methylpiperazin-1-yl)pyrazin-2-yl)-1-oxo-2-phenyl-1,2-dihydroisoquinolin-3-yl)ethyl)amino)pyrido[2,3-d]pyrimidin-5(8H)-one] | 80 | 55 | – | – | – | –
C[C@H](Nc1ncnc2[nH]ccc(=O)c12)c1c(Cl)c2cccc(C#Cc3cnn(C)c3)c2c(=O)n1-c1ccccc1 [Example 309, (S)-4-((1-(4-chloro-8-((1-methyl-1H-pyrazol-4-yl)ethynyl)-1-oxo-2-phenyl-1,2-dihydroisoquinolin-3-yl)ethyl)amino)pyrido[2,3-d]pyrimidin-5(8H)-one] | 42.4 | 23.2 | 65.6 | 64.8 | – | –
CCC[S@@+]([O-])c1cccc2c(Cl)c([C@H](C)Nc3ncnc4[nH]ccc(=O)c34)n(-c3ccccc3)c(=O)c12 [Example 397] | – | – | – | – | 94 | 34
